Source: patent publication US20250281424A1 (New York Blood Center, Inc, priority 2020, published 2025)

Biological target: T1, human PF4 (Homo sapiens, UniProt P02776)
T1 construct: PF4 is a 70 amino acid, lysine-rich 7.8 kDa platelet-specific protein; made in house; host or cells: Escherichia coli BL21DE3 pLysS (pT7-7) and/or Drosophila S2 cells
T1 sequence (P02776 32-101): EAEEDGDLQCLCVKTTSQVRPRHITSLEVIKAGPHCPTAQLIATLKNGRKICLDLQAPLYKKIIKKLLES
Experiment: Inhibition of PF4 tetramer formation (BS3 cross-linking, SDS-PAGE)
Format: biochemical
Conditions: for inhibition at 1 µM / inhibition at 3 µM / inhibition at 5 µM / inhibition at 10 µM: read-out: % inhibition of PF4 tetramer formation at single concentration of inhibitor; for inhibition at 5 µM: 5 μM inhibitor; for inhibition at 10 µM: 10 μM inhibitor (column A); for IC50: read-out: IC50 of PF4 tetramer formation inhibition
Description: Compounds of Examples 1-38, 65-301, 303, 305, 307, 309, 311, 313, 314, 316, and 318-404 were tested using SDS PAGE analysis of BS3 crosslinked PF4 for their ability to prevent PF4 tetramer formation. […] See, Suvarna et al., Throm. Res, 122:211-220 (2008), which is hereby incorporated by reference, at least for a detailed description of this technique.
cDNA encoding human PF4 was cloned into the plasmid μMT/BiPN5-His A (Invitrogen Corp., Carlsbad CA) for expression in the Drosophila Expression System (Invitrogen, Carlsbad, CA). Cloning was performed using Bg1 II and Age I cloning sites. A hexanucleotide encoding Bg1 II site was then eliminated by site-directed mutagenesis so that the expressed protein contained full-length wild type (wt) PF4 or PF4^K50E with an identical sequence as their counterparts expressed in E. coli. See, method described in Sachais et al (Sachais, B. S. et al. (2012). Blood 119(25): 5955-5961). PF4 expression was induced by adding copper sulfate (0.5 mM). The induced S2 cells were incubated in serumfree Insect-Xpress™ media (Lonza, Walkersville, MD) for 3-5 days; supernatants were collected, sodium azide (0.02% final concentration) and EDTA (2.5 mM final concentration) were added, and the media were filtered through an Express® PLUS 0.22 μm filter (Millipore Corp., Billerica, MA).
Wild-type (WT) human PF4 in the pT7-7 vector (Novagen, Madison, WI) was expressed in the Escherichia coli strain BL21DE30 pLysS (Stratagene, La Jolla, CA), and purified and characterized as described by Rauova et al. (Rauova, L. et al. (2006). Blood 107(6): 2346-2353) and Park et al., (Blood, 75:1290-1295 (1990)), which are hereby incorporated by reference. Briefly, recombinant protein was isolated from the supernatant of the bacterial lysate by affinity chromatography using a HiTrap high-performance (HP) affinity column. WT PF4 was purified from the media on a heparin HiTrap® column on an ÄTKAPrime™ system (GE Healthcare) at 4° C. in Tris (10 mM), EDTA (1 mM), and pH 8 buffer. Media was loaded in buffer containing NaCl (0.5 M) and PF4 was eluted at 1.8 M NaCl using a linear gradient. Fractions containing purified PF4 as detected by silver staining of 12% NuPAGE Bis-Tris gels (Invitrogen) were pooled, concentrated and buffer exchanged into 50 mM HEPES, 0.5 M NaCl, pH—7.2 using an Amicon® Ultra centrifugal filter (3K NMWL, Millipore Corp). Protein was quantified using a BCA assay.
Compounds of Examples 1-38, 65-196, and 209-228 were then tested for their ability to inhibit PF4 tetramer formation using a cross-linking assay as described in Rauova cited above. Specifically, hPF4 (10 μg/ml) in phosphate-buffered saline (PBS) was incubated at 37° C. for 15 min in the absence of the antagonistic compounds (control sample) and presence of compounds. Cross-linking and SDS-PAGE analysis were then performed as described in “Analysis of PF4 multimerization” of Rauova. The relative amounts of PF4 in each of the monomer, dimer, trimer and tetramer form were calculated by analyzing the samples on a 12% SDS-polyacrylamide gel under reducing conditions. Bands were quantified using the Kodak ID Image Analysis system (Kodak, Rochester, NY). The SigmaMarker™ reagent served as the molecular weight standard. Data was compiled and bar graphed as % PF4 for the tetramer, trimer, dimer, and monomer as a function of concentration for the test and control samples.
This experiment was performed in a manner similar to experiment 1, but PF4 (10 μg/ml) in PBS was independently incubated with compounds of Examples 1-38, 65-196, and 209-228 for 60 min at room temperature, followed by the addition of cross-linking reagent bis(sulfosuccinimidyl)suberate (0.2 mM) for 30 min at room temperature. The reaction was stopped by adding NuPAGE® lithium dodecyl sulfate (LDS) sample buffer, and denatured by heating to 70° C. for 10 min according to the manufacturer's instructions. […]

Row | Structure (SMILES) | inhibition at 1 µM (1 μM inhibitor) | inhibition at 3 µM (3 μM inhibitor (column A)) | inhibition at 5 µM | inhibition at 10 µM | IC50 | other results
1 | NCC(=O)C1C(=O)c2ccc(C(=O)c3ccc4c(c3)C(=O)C(C(=O)CN)C4=O)cc2C1=O (stereo not drawn) [Example 327, 2-(2-aminoacetyl)-5-[2-(2-aminoacetyl)-1,3-dioxo-2,3-dihydro-1H-indene-5-carbonyl]-2,3-dihydro-1H-indene-1,3-dione] | 13% | 24% | – | – | – | –
2 | CC[C@H](C)[C@H](NC(=O)C1C(=O)c2ccc(S(=O)(=O)c3ccc4c(c3)C(=O)C(C(=O)N[C@H](C(=O)OC)[C@@H](C)CC)C4=O)cc2C1=O)C(=O)OC (stereo partly drawn) [Example 333, methyl (2S,3S)-2-({5-[(2-{[(2S,3S)-1-methoxy-3-methyl-1-oxopentan-2-yl]carbamoyl}-1,3-dioxo-2,3-dihydro-1H-inden-5-yl)sulfonyl]-1,3-dioxo-2,3-dihydro-1H-inden-2-yl}formamido)-3-methylpentanoate] | 15% | 21% | – | – | – | –
3 | CCOC(=O)CNC(=O)C1C(=O)c2ccc(C(=O)c3ccc4c(c3)C(=O)C(C(=O)NCC(=O)OCC)C4=O)cc2C1=O (stereo not drawn) [Example 30, 5,5′-5,5′-carbonylbis([(1,3-dioxo-indane-2-carbonyl)-amino]-acetic acid ethyl ester)] | – | – | 12% | 58% | – | –
4 | CC[C@H](C)[C@H](NC(=O)OC(C)(C)C)C(=O)C1C(=O)c2ccc(S(=O)(=O)c3ccc4c(c3)C(=O)C(C(=O)[C@@H](NC(=O)OC(C)(C)C)[C@@H](C)CC)C4=O)cc2C1=O (stereo partly drawn) [Example 279, tert-butyl N-[(2S,3S)-1-[5-({2-[(2S,3S)-2-{[(tert-butoxy)carbonyl]amino}-3-methylpentanoyl]-1,3-dioxo-2,3-dihydro-1H-inden-5-yl}sulfonyl)-1,3-dioxo-2,3-dihydro-1H-inden-2-yl]-3-methyl-1-oxopentan-2-yl]carbamate] | 33% | 15% | – | – | 3 µM | –
5 | O=C(c1ccc2c(c1)C(=O)C(C(=O)C1CCC1)C2=O)c1ccc2c(c1)C(=O)C(C(=O)C1CCC1)C2=O (stereo not drawn) [Example 299, 2-cyclobutanecarbonyl-5-(2-cyclobutanecarbonyl-1,3-dioxo-2,3-dihydro-1H-indene-5-carbonyl)-2,3-dihydro-1H-indene-1,3-dione] | 32% | 56% | – | – | – | –
6 | CO[C@@H]1O[C@H](C(=O)C2C(=O)c3ccc(S(=O)(=O)c4ccc5c(c4)C(=O)C(C(=O)[C@H]4O[C@@H](OC)[C@H]6OC(C)(C)O[C@@H]64)C5=O)cc3C2=O)[C@H]2OC(C)(C)O[C@H]12 (stereo partly drawn) [Example 220, 2-[(3aS,4S,6R,6aS)-6-methoxy-2,2-dimethyl-tetrahydro-2H-furo[3,4-d][1,3]dioxole-4-carbonyl]-5-({2-[(3aS,4S,6R,6aS)-6-methoxy-2,2-dimethyl-tetrahydro-2H-furo[3,4-d][1,3]dioxole-4-carbonyl]-1,3-dioxo-2,3-dihydro-1H-inden-5-yl}sulfonyl)-2,3-dihydro-1H-indene-1,3-dione] | – | – | 90% | 92% | 2.5 µM | –
7 | O=C(CCC(=O)C1C(=O)c2ccc(S(=O)(=O)c3ccc4c(c3)C(=O)C(C(=O)CCC(=O)c3cccc(Cl)c3Cl)C4=O)cc2C1=O)c1cccc(Cl)c1Cl (stereo not drawn) [Example 255, 2-[4-(2,3-dichlorophenyl)-4-oxobutanoyl]-5-({2-[4-(2,3-dichlorophenyl)-4-oxobutanoyl]-1,3-dioxo-2,3-dihydro-1H-inden-5-yl}sulfonyl)-2,3-dihydro-1H-indene-1,3-dione] | 18% | 42% | – | – | – | % inhibition of PF4 tetramer formation at single concentration of inhibitor (1 μM inhibitor, 1 µM): 9%; % inhibition of PF4 tetramer formation at single concentration of inhibitor (3 μM inhibitor (column A), 3 µM): 51%
8 | CCCCc1ccc(NC(=O)C2C(=O)c3ccc(S(=O)(=O)c4ccc5c(c4)C(=O)C(C(=O)Nc4ccc(CCCC)cc4)C5=O)cc3C2=O)cc1 (stereo not drawn) [Example 102] | – | – | 78% | 100% | 2.9 µM | –
9 | CC(C)(C)OC(=O)N1CC[C@H]1C(=O)C1C(=O)c2ccc(C(=O)c3ccc4c(c3)C(=O)C(C(=O)[C@@H]3CCN3C(=O)OC(C)(C)C)C4=O)cc2C1=O (stereo partly drawn) [Example 115, tert-butyl (2S)-2-(5-{2-[(2S)-1-[(tert-butoxy)carbonyl]azetidine-2-carbonyl]-1,3-dioxo-2,3-dihydro-1H-indene-5-carbonyl}-1,3-dioxo-2,3-dihydro-1H-indene-2-carbonyl)azetidine-1-carboxylate] | – | – | – | – | 3.3 µM | –
10 | COC(=O)[C@@H]1C[C@H]1C(=O)C1C(=O)c2ccc(S(=O)(=O)c3ccc4c(c3)C(=O)C(C(=O)[C@@H]3C[C@H]3C(=O)OC)C4=O)cc2C1=O (stereo partly drawn) [Example 218, methyl (1R,2R)-2-[5-({2-[(1R,2R)-2-(methoxycarbonyl)cyclopropanecarbonyl]-1,3-dioxo-2,3-dihydro-1H-inden-5-yl}sulfonyl)-1,3-dioxo-2,3-dihydro-1H-indene-2-carbonyl]cyclopropane-1-carboxylate] | – | – | 67% | 92% | 4 µM | –
11 | CC(C)(C)OC(=O)N[C@@H](Cc1ccccc1)C(=O)C1C(=O)c2ccc(S(=O)(=O)c3ccc4c(c3)C(=O)C(C(=O)[C@H](Cc3ccccc3)NC(=O)OC(C)(C)C)C4=O)cc2C1=O (stereo partly drawn) [Example 158, tert-butyl N-[(2S)-1-[5-({2-[(2S)-2-{[(tert-butoxy)carbonyl]amino}-3-phenylpropanoyl]-1,3-dioxo-2,3-dihydro-1H-inden-5-yl}sulfonyl)-1,3-dioxo-2,3-dihydro-1H-inden-2-yl]-1-oxo-3-phenylpropan-2-yl]carbamate] | – | – | 100% | 100% | 1.4 µM | –
12 | CC(=O)C1C(=O)c2ccc(-c3ccc4c(c3)C(=O)C(C(C)=O)C4=O)cc2C1=O (stereo not drawn) [Example 10, 2-acetyl-5-(2-acetyl-2,3-dihydro-1,3dioxo-1h-inden-5-yl)-2,3-dihydro-1,3-dioxo-1h-indene] | – | – | – | – | 1.35 µM | –
13 | O=C1CC(=O)c2cc(Oc3ccc4c(c3)C(=O)CC4=O)ccc21 [Example 7, 5-(2,3-dihydro-1,3dioxo-1h-inden-6-yloxy)-2,3-dihydro-1,3-dioxo-1h-indene] | – | – | – | – | 1.12 µM | –
14 | CC(C)(C)OC(=O)N1CC[C@@H](C(=O)C2C(=O)c3ccc(C(=O)c4ccc5c(c4)C(=O)C(C(=O)[C@@H]4CCN(C(=O)OC(C)(C)C)C4)C5=O)cc3C2=O)C1 (stereo partly drawn) [Example 123, tert-butyl (3R)-3-(5-{2-[(3R)-1-[(tert-butoxy)carbonyl]pyrrolidine-3-carbonyl]-1,3-dioxo-2,3-dihydro-1H-indene-5-carbonyl}-1,3-dioxo-2,3-dihydro-1H-indene-2-carbonyl)pyrrolidine-1-carboxylate] | – | – | 88% | 89% | 1.6 µM | –
